Laboratory results from patent US20240002397A1, “3-AMINO PYRROLIDINE AND PIPERIDINE MACROCYCLIC OREXIN RECEPTOR AGONISTS” (Merck Sharp & Dohme LLC, priority 2020, published 2024).

These compounds were tested against T1, human OX2R (Homo sapiens, UniProt O43614) (assay: IPOne (IP-1) orexin receptor agonist assay in CHO cells expressing human OX2R). Details: CHO, hOX2R IP-One; percentage of mean max effect of a reference compound at 1 uM with 100% activity.
T1 sequence (O43614 1-444): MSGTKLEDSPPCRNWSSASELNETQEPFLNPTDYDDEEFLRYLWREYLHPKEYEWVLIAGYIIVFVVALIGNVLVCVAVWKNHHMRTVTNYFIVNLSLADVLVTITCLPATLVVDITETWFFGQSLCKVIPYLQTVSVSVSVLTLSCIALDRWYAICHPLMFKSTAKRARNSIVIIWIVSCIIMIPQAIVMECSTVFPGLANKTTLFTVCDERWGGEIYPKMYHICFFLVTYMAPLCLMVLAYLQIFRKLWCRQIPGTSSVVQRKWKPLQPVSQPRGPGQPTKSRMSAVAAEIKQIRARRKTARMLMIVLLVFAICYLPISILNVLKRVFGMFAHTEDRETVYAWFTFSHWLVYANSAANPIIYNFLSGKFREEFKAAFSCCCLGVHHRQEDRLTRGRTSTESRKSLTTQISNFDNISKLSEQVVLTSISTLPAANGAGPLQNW
Experimental: In atypical experiment, the OX1 and OX2 receptor agonist activity is determined in accordance with the following general experimental method. Chinese hamster ovary (CHO) cells expressing human OX1R and/or the human OX2R were grown in Iscove's modified DMEM containing glutaMAX™, 1% G418, 100 U/mL penicillin, 100 μg/mL streptomycin and 10% heat-inactivated qualified fetal bovine serum (FBS). […] During this incubation, IP-one detection reagents were prepared (38:1:1 lysis buffer:D2:AB-cryptate reagents).
For each compound, data were fit to a four parameter logistic fit (ActivityBase software) and the EC50 was reported as the inflection point of the resulting curve.

Row | SMILES | Emax [%]
1 | C[C@@H]1C[C@H](NS(C)(=O)=O)[C@@H]2CO[C@H]3CC[C@H](CC3)c3cc(C(F)(F)F)cc(n3)OCCCOC(=O)N12 [Example 51, N-((2^1S,2^4S,5^2R,5^3S,5^5R)-5^5-methyl-6-oxo-14-(trifluoromethyl)-3,7,11-trioxa-1(2,6)-pyridina-5(2,1)-pyrrolidina-2(1,4)-cyclohexanacycloundecaphane-5^3-yl)methanesulfonamide] | 99.2
2 | C[C@@H]1C[C@H](NS(C)(=O)=O)C2COC3CCC(CC3)c3cc(C(F)(F)F)cc(n3)OCCOC(=O)N21 (some centres unmarked) [Example 54, N-((2^1S,2^4S,5^2R,5^3S,5^5R)-5^5-methyl-6-oxo-1^4-(trifluoromethyl)-3,7,10-trioxa-1(2,6)-pyridina-5(2,1)-pyrrolidina-2(1,4)-cyclohexanacyclodecaphane-5^3-yl)methanesulfonamide] | 100
3 | C[C@@H]1C[C@H](NS(C)(=O)=O)C2COC3CCC(CC3)c3cnc(F)c(c3)OCCCOC(=O)N21 (some centres unmarked) [Example 55, N-((2^1S,2^4S,5^2R,5^3S,5^5R)-1^6-fluoro-5^5-methyl-6-oxo-3,7,11-trioxa-1(3,5)-pyridina-5(2,1)-pyrrolidina-2(1,4)-cyclohexanacycloundecaphane-5^3-yl)methanesulfonamide] | 103
4 | C[C@@H]1C[C@H](NS(C)(=O)=O)C2COC3CCC(CC3)c3ccc(F)c(n3)OCCOC(=O)N21 (some centres unmarked) [Example 56, N-((2^1S,2^4S,5^2R,5^3S,5^5R)-1^5-fluoro-5^5-methyl-6-oxo-3,7,10-trioxa-1(2,6)-pyridina-5(2,1)-pyrrolidina-2(1,4)-cyclohexanacyclodecaphane-5^3-yl)methanesulfonamide] | 98.2
5 | C[C@@H]1C[C@H](NS(C)(=O)=O)C2COC3CCC(CC3)c3nc(ccc3OC(F)(F)F)OCCOC(=O)N21 (some centres unmarked) [Example 58, N-((2^1S,2^4S,5^2R,5^3S,5^5R)-5^5-methyl-6-oxo-1^3-(trifluoromethoxy)-3,7,10-trioxa-1(2,6)-pyridina-5(2,1)-pyrrolidina-2(1,4)-cyclohexanacyclodecaphane-5^3-yl)methanesulfonamide] | 102
6 | C[C@@H]1C[C@H](NS(C)(=O)=O)C2COC3CCC(CC3)c3nc(ccc3OC(F)(F)F)OCCCOC(=O)N21 (some centres unmarked) [Example 59, N-((2^1S,2^4S,5^2R,5^3S,5^5R)-5^5-methyl-6-oxo-1^3-(trifluoromethoxy)-3,7,11-trioxa-1(2,6)-pyridina-5(2,1)-pyrrolidina-2(1,4)-cyclohexanacycloundecaphane-5^3-yl)methanesulfonamide] | 96.9
7 | C[C@@H]1C[C@H](NS(C)(=O)=O)C2COC3CCC(CC3)c3ccc(C(F)(F)F)c(n3)OCCOC(=O)N21 (some centres unmarked) [Example 64, N-((2^1S,2^4S,5^2R,5^3S,5^5R)-5^5-methyl-6-oxo-1^5-(trifluoromethyl)-3,7,10-trioxa-1(2,6)-pyridina-5(2,1)-pyrrolidina-2(1,4)-cyclohexanacyclodecaphane-5^3-yl)methanesulfonamide] | 102
8 | C[C@@H]1C[C@H](NS(C)(=O)=O)C2COC3CCC(CC3)c3ccc(C(F)(F)F)c(n3)OCCCOC(=O)N21 (some centres unmarked) [Example 65, N-((2^1S,2^4S,5^2R,5^3S,5^5R)-5^5-methyl-6-oxo-1^5-(trifluoromethyl)-3,7,11-trioxa-1(2,6)-pyridina-5(2,1)-pyrrolidina-2(1,4)-cyclohexanacycloundecaphane-5^3-yl)methanesulfonamide] | 103
9 | Cc1cc2nc(c1)C1CCC(CC1)OCC1[C@@H](NS(C)(=O)=O)C[C@@H](C)N1C(=O)OCCO2 (some centres unmarked) [Example 66, N-((2^1S,2^4S,5^2R,5^3S,5^5R)-1^4,5^5-dimethyl-6-oxo-3,7,10-trioxa-1(2,6)-pyridina-5(2,1)-pyrrolidina-2(1,4)-cyclohexanacyclodecaphane-5^3-yl)methanesulfonamide] | 95
10 | C[C@@H]1C[C@H](NS(C)(=O)=O)C2COC3CCC(CC3)c3nc(ccc3C(F)(F)F)OCCOC(=O)N21 (some centres unmarked) [Example 68, N-((2^1S,2^4S,5^2R,5^3S,5^5R)-5^5-methyl-6-oxo-1^3-(trifluoromethyl)-3,7,10-trioxa-1(2,6)-pyridina-5(2,1)-pyrrolidina-2(1,4)-cyclohexanacyclodecaphane-5^3-yl)methanesulfonamide] | 102
11 | C[C@@H]1C[C@H](NS(C)(=O)=O)C2COC3CCC(CC3)c3nc(ccc3C(F)(F)F)OCCCOC(=O)N21 (some centres unmarked) [Example 69, N-((2^1S,2^4S,5^2R,5^3S,5^5R)-5^5-methyl-6-oxo-1^3-(trifluoromethyl)-3,7,11-trioxa-1(2,6)-pyridina-5(2,1)-pyrrolidina-2(1,4)-cyclohexanacycloundecaphane-5^3-yl)methanesulfonamide] | 94.7
12 | COc1cc2nc(c1)C1CCC(CC1)OCC1[C@@H](NS(C)(=O)=O)C[C@@H](C)N1C(=O)OCCO2 (some centres unmarked) [Example 70, N-((2^1S,2^4S,5^2R,5^3S,5^5R)-1^4-methoxy-5^5-methyl-6-oxo-3,7,10-trioxa-1(2,6)-pyridina-5(2,1)-pyrrolidina-2(1,4)-cyclohexanacyclodecaphane-5^3-yl)methanesulfonamide] | 102
13 | C[C@@H]1C[C@H](NS(C)(=O)=O)C2COC3CCC(CC3)c3ccc(OC(F)(F)F)c(n3)OCCOC(=O)N21 (some centres unmarked) [Example 72, N-((2^1S,2^4S,5^2R,5^3S,5^5R)-5^5-methyl-6-oxo-1^5-(trifluoromethoxy)-3,7,10-trioxa-1(2,6)-pyridina-5(2,1)-pyrrolidina-2(1,4)-cyclohexanacyclodecaphane-5^3-yl)methanesulfonamid] | 102
14 | COc1cc2nc(c1F)OCCCOC(=O)N1C(COC3CCC2CC3)[C@@H](NS(C)(=O)=O)C[C@H]1C (some centres unmarked) [Example 75, N-((2^1S,2^4S,5^2R,5^3S,5^5R)-1^4-fluoro-1^3-methoxy-5^5-methyl-6-oxo-3,7,11-trioxa-1(2,6)-pyridina-5(2,1)-pyrrolidina-2(1,4)-cyclohexanacycloundecaphane-5^3-yl)methane sulfonamide] | 97.2

Results, then the compound that gave them:

Row | Emax [%] | SMILES
15 | 98.4 | C[C@@H]1C[C@H](NS(C)(=O)=O)C2COC3CCC(CC3)c3ccc(C(F)(F)F)c(c3)OCCCOC(=O)N21 (some centres unmarked) [Example 52, N-((2^1S,2^4S,5^2R,5^3S,5^5R)-5^5-methyl-6-oxo-1^4-(trifluoromethyl)-3,7,11-trioxa-5(2,1)-pyrrolidina-1(1,3)-benzena-2(1,4)-cyclohexanacycloundecaphane-5^3-yl)methanesulfonamide]
16 | 103 | C[C@@H]1C[C@H](NS(C)(=O)=O)C2COC3CCC(CC3)c3cc(ccc3OC(F)(F)F)OCCOC(=O)N21 (some centres unmarked) [Example 53, N-((2^1S,2^4S,5^2R,5^3S,5^5R)-5^5-methyl-6-oxo-16-(trifluoromethoxy)-3,7,10-trioxa-5(2,1)-pyrrolidina-1(1,3)-benzena-2(1,4)-cyclohexanacyclodecaphane-5^3-yl)methanesulfonamide]
17 | 102 | C[C@@H]1C[C@H](NS(C)(=O)=O)C2COC3CCC(CC3)c3ccc(F)c(n3)OCCCOC(=O)N21 (some centres unmarked) [Example 57, N-((2^1S,2^4S,5^2R,5^3S,5^5R)-1^5-fluoro-5^5-methyl-6-oxo-3,7,11-trioxa-1(2,6)-pyridina-5(2,1)-pyrrolidina-2(1,4)-cyclohexanacycloundecaphane-5^3-yl)methanesulfonamide]
18 | 91.2 | CC(C)Oc1ccc2cc1C1CCC(CC1)OCC1[C@@H](NS(C)(=O)=O)C[C@@H](C)N1C(=O)OCCO2 (some centres unmarked) [Example 62, N-((2^1S,2^4S,5^2R,5^3S,5^5R)-1^6-isopropoxy-5^5-methyl-6-oxo-3,7,10-trioxa-5(2,1)-pyrrolidina-1(1,3)-benzena-2(1,4)-cyclohexanacyclodecaphane-5^3-yl)methanesulfonamide]
19 | 93.1 | CC(C)Oc1ccc2cc1C1CCC(CC1)OCC1[C@@H](NS(C)(=O)=O)C[C@@H](C)N1C(=O)OCCCO2 (some centres unmarked) [Example 63, N-((2^1S,2^4S,5^2R,5^3S,5^5R)-1^6-isopropoxy-5^5-methyl-6-oxo-3,7,11-trioxa-5(2,1)-pyrrolidina-1(1,3)-benzena-2(1,4)-cyclohexanacycloundecaphane-5^3-yl)methanesulfonamide]
20 | 98.5 | Cc1cc2nc(c1)C1CCC(CC1)OCC1[C@@H](NS(C)(=O)=O)C[C@@H](C)N1C(=O)OCCCO2 (some centres unmarked) [Example 67, N-((2^1S,2^4S,5^2R,5^3S,5^5R)-1^4,5^5-dimethyl-6-oxo-3,7,11-trioxa-1(2,6)-pyridina-5(2,1)-pyrrolidina-2(1,4)-cyclohexanacycloundecaphane-5^3-yl)methanesulfonamide]
21 | 102 | COc1cc2nc(c1)C1CCC(CC1)OCC1[C@@H](NS(C)(=O)=O)C[C@@H](C)N1C(=O)OCCCO2 (some centres unmarked) [Example 71, N-((2^1S,2^4S,5^2R,5^3S,5^5R)-1^4-methoxy-5^5-methyl-6-oxo-3,7,11-trioxa-1(2,6)-pyridina-5(2,1)-pyrrolidina-2(1,4)-cyclohexanacycloundecaphane-5^3-yl)methanesulfonamide]
22 | 100 | C[C@@H]1C[C@H](NS(C)(=O)=O)C2COC3CCC(CC3)c3ccc(OC(F)(F)F)c(n3)OCCCOC(=O)N21 (some centres unmarked) [Example 73, N-((2^1S,2^4S,5^2R,5^3S,5^5R)-5^5-methyl-6-oxo-1^5-(trifluoromethoxy)-3,7,11-trioxa-1(2,6)-pyridina-5(2,1)-pyrrolidina-2(1,4)-cyclohexanacycloundecaphane-5^3-yl)methanesulfonamide]
23 | 101 | COc1ccc2nc1OCCCOC(=O)N1C(COC3CCC2CC3)[C@@H](NS(C)(=O)=O)C[C@H]1C (some centres unmarked) [Example 76, N-((2^1S,2^4S,5^2R,5^3S,5^5R)-1^5-methoxy-5^5-methyl-6-oxo-3,7,11-trioxa-1(2,6)-pyridina-5(2,1)-pyrrolidina-2(1,4)-cyclohexanacycloundecaphane-5^3-yl)methanesulfonamide]
